Test results published in ChEMBL document CHEMBL4311934, “Exploration of [2 + 2 + 2] cyclotrimerisation methodology to prepare tetrahydroisoquinoline-based compounds with potential aldo-keto reductase 1C3 target affinity” (Medchemcomm, 2019).

Tests used:
[1] = molecular target: T1, Aldo-keto reductase family 1 member C2 (Homo sapiens, UniProt P52895); assay: Inhibition of N-terminal GST-tagged recombinant human AKR1C2 expressed in Escherichia coli BL21 (DE) Codon Plus RP cells assessed as reduction in NADPH production using S-tetralol as substrate in presence of NADP+ by fluorimetry assay
T1 sequence (P52895 whole entry): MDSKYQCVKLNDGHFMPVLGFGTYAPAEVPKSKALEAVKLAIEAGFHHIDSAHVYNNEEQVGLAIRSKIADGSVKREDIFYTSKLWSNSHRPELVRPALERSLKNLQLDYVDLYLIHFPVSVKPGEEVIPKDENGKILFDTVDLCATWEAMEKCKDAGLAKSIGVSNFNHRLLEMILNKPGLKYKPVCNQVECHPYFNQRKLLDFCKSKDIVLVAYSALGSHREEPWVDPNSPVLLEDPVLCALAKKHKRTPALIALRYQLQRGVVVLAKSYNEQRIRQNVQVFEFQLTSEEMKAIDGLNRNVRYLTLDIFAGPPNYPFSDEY

Homo sapiens = species on record: Homo sapiens; assay: Selectivity index, ratio of IC50 for N-terminal GST-tagged recombinant human AKR1C2 expressed in Escherichia coli BL21 (DE) Codon Plus RP cells to IC50 for N-terminal GST-tagged recombinant human AKR1C3 expressed in Escherichia coli BL21 (DE) Codon Plus RP cells
[2] = molecular target: T2, Aldo-keto reductase family 1 member C3 (Homo sapiens, UniProt P42330); assay: Inhibition of N-terminal GST-tagged recombinant human AKR1C3 expressed in Escherichia coli BL21 (DE) Codon Plus RP cells assessed as reduction in NADPH production using S-tetralol as substrate in presence of NADP+ by fluorimetry assay
T2 sequence (P42330 whole entry): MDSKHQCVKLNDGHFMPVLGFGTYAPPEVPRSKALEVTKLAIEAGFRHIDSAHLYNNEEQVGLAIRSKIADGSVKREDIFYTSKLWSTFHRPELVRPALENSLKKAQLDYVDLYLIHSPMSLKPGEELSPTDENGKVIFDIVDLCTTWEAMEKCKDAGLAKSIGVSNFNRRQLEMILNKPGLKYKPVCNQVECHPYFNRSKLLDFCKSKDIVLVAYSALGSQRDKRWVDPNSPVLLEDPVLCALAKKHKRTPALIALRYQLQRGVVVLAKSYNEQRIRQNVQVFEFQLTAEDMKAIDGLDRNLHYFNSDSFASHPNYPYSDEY

[3] = molecular target: T3, Aldo-keto reductase family 1 member C3 (Homo sapiens) (UniProt P42330); assay: Inhibition of N-terminal GST-tagged recombinant human AKR1C3 expressed in Escherichia coli BL21 (DE) Codon Plus RP cells assessed as reduction in NADPH production at 50 uM using S-tetralol as substrate in presence of NADP+ by fluorimetry assay relative to control
T3 sequence (whole entry): T2 sequence (P42330 whole entry)

[4] = molecular target: T4, Aldo-keto reductase family 1 member C2 (Homo sapiens) (UniProt P52895); assay: Inhibition of N-terminal GST-tagged recombinant human AKR1C2 expressed in Escherichia coli BL21 (DE) Codon Plus RP cells assessed as reduction in NADPH production 50 uM using S-tetralol as substrate in presence of NADP+ by fluorimetry assay relative to control
T4 sequence (whole entry): T1 sequence (P52895 whole entry)

| Compound | IC50 [1] | Ratio IC50 (Homo sapiens) | IC50 [2] | inhibition [3] | inhibition [4] |
| --- | --- | --- | --- | --- | --- |
| CCOC(=O)c1cc2c(cc1C(=O)OCC)CN1C(=O)CCC1C2 (stereo unspecified) | 96.2 µM | 8 | 11.7 µM |  |  |
| O=C1CCC2Cc3cc(CO)c(CO)cc3CN12 (stereo unspecified) | > 50 µM |  | > 50 µM | 25% | 26.9% |
| COc1ccc2cc3[n+](cc2c1OC)CCc1cc2c(cc1-3)OCO2 [BERBERINE] | 6.71 µM |  | 5.9 µM |  |  |
| O=C(O)c1cc2c(cc1C(=O)O)CN1C(=O)CCC1C2 (stereo unspecified) | 27.3 µM |  | 23.1 µM |  |  |
